Consider two molecules from patent US12280088B2, “Dry powder formulation of caveolin-1 peptides and methods of use thereof” (BOARD OF REGENTS, THE UNIVERSITY OF TEXAS SYSTEM, priority 2018, dated 2025).

Series [1] in a line: Stability study of milled CSP7 (ammonium counterion): aerodynamic particle size distribution by NGI. In kind it is physicochemical. The following applies: Lot#UTA181028; Unprocessed. On the procedure:
Determination of aerodynamic particle size distribution of milled CSP7 bulk powder. Around 3.5 mg of milled CSP7 powder was manually filled into size 3 HPMC capsules (Capsugel, Peapack, N.J.). CSP7 capsules were then aerosolized using a RS01 Monodose Dry Powder Inhaler (high resistance) and aerodynamic particle size distribution was measured by a Next Generation Impactor (NGI, MSP Corp., Shoreview, Minn.). Aerosols were produced over 4 s at an air flow rate of 60 L/min for the inhaler to achieve an inhalation volume of 4 L and 4 kPa pressure drop across the device. Before each run, NGI collection surfaces were coated with 5% (v/v) polysorbate 20 in methanol. One capsule was shot for each run and each sample was ran in triplicate repetitions (three capsules). After aerosolization, all collection surfaces were rinsed with specific volumes of 20 mM Tris buffer (pH 10.3) to collect the drug. Powders deposited in the capsule, device, adaptor, throat, pre-separator, and stages 1-MOC were extracted respectively.
For each test, delivered dose is defined as the mass of CSP7 that entered the NGI. Geometric standard deviation (GSD), mass median aerodynamic diameter (MMAD) and fine particle fraction % (FPF %) are calculated and analyzed with Copley Inhaler Testing Data Analysis Software (CITDAS, Copley Scientific, Nottingham UK), based on the doses deposited on stages 1-MOC of NGI. The FPF is defined as the mass fraction of particles less than 5.0 μm with the delivered dose.
(§1) Stability study for milled CSP7 (ammonium counterion) from Lot #UTA181028. The stability of milled CSP7 powder was investigated under different storage conditions for a period of up to 6 months. Milled CSP7 peptide is packaged as two forms, bulk milled powder and encapsulated milled powder. For storage as bulk milled powder, 0.21-0.24 g peptide is filled in 20 mL scintillation vials (Kimble®, DWK Life Sciences, Millville, N.J., US) and stored within a heat-sealed foil pouch (Impak Corp, Los Angeles, Calif., US) containing two bags of 1 g silica gel desiccant (Tyvek®, Sorbco Packaging LLC, Belen, N. Mex., US) in each pouch. Milled peptide powder is also encapsulated in size 3 HPMC capsules (Capsugel, Morristown, N.J., US) in a weight of about 11±5% mg, and 22-26 capsules are then packaged in HDPE bottles (Drug Plastic, Boyertown, Pa., US), followed by sealing the HDPE bottle within a foil pouch (without desiccant). Packages are stored in stability chambers at the following storage conditions: −20° C., 25° C./60% RH, and 40° C./75% RH. Samples are removed for testing at 1, 3, and 6 months (Table 38). For tests except the aerodynamic particle size distribution, encapsulated powder was removed from the capsule and mixed in a glass vial by rotating the vial.
Aerodynamic particle size distribution: The aerodynamic particle size distribution was evaluated by performing NGI as described in Example 1, except that the powder weight in the tested capsule was 11±5% mg and pre-separator was removed in the assembly of the NGI in stability study.

The next series in a line: physchem. Format: physicochemical. As for the experimental part:
Solubility of neat (i.e., not milled) CSP7 ammonium counterion form (Table 35) was performed by adding excess amount of peptide powder into 3 mL different pH buffers (Table 36) and mixing on orbital shaker at 100 rpm for 24 hours at room temperature. The solubility and freeze-thaw samples were filtered through a 0.45 μm membrane prior to being assayed by performing High Performance Liquid Chromatography (HPLC, Thermo Fisher Scientific, Fair Lawn, N.J.). Briefly, samples were analyzed using Dionex 3000 HPLC system equipped with a Waters® reversed phase C18 column 2.5 μm, 150 mm×4.60 mm. The HPLC column was heated to 60° C. for testing, and the peptide was detected at a wavelength of 215 nm and a 1 mL/min flow rate. The two mobile phases were A (0.1% acetic acid in water) and B (0.1% acetic acid in acetonitrile). The injection volume was 20 μL and the standard curve was plotted from 0.01-1 mg/ml.

A short description of series [2]: Stability study of milled CSP7 (ammonium counterion): geometric particle size distribution (Sympatec HELOS, RODOS). In kind it is physicochemical. The following applies: not stored (Unprocessed / Initial). As for the experimental part: as §1
Geometric particle size distribution. GPSD of CSP7 powder was analyzed before and after milling using a Sympatec HELOS laser diffraction instrument (Sympatec GmbH, Germany) equipped with RODOS dispersion. Measurements are taken every 10 ms following powder dispersion at 3 bar. Measurements that are between 5 and 25% optical density were averaged to determine particle size distribution. The particle sizes by volume are reported at percentiles of 10, 50, and 90 (e.g., Dv 10, Dv 50, and Dv 90), respectively, as well as the percentages of particles falling into 1-5 μm size range. The results are shown in 41.

The nature of series [3]: Geometric particle size by Sympatec laser diffraction, wet dispersion. In kind it is physicochemical. As for the experimental part: The particle sizes were next determined by Sympatec laser diffraction by a wet dispersion method. CSP7 was dissolved in ethanol +0.05% Tween 80 as dispersion medium and sonicated 10 min.
The nature of series [4]: pH-solubility of polypeptide variants. In kind it is physicochemical. As for the experimental part: Solubility study of variants was performed by adding variants powders into solvent in concentration of 5 mg/ml and then vortexing for 3 min. Observe the appearance of solutions in 5 min. Add more powder (˜5 mg/ml each time) and repeat vortex and observe until precipitation or gelation occurs.

The subject of series [5] is Bleomycin Induced Lung Fibrosis. The series is described as follows: Bleomycin induced lung fibrosis in mice, Ashcroft score. Format: in vivo. The conditions noted are these: dry powder inhalation after bleomycin induction, vs bleomycin only. As for the experimental part: Preparation and lysis of lung tissues. Female mice, ages 6-8 weeks are ordered from Jackson Laboratories, stock: 000664 C57BL/6J are cared for and housed according to IACUC guidelines. The following week, mice are weighed, anesthetized with an IP injection of 80 mg/kg Ketamine & 6 mg/kg Xylazine (approx. 115 ul/mouse) and subjected to a single intratracheal installation of bleomycin. Briefly, a 26G plastic catheter is inserted into the trachea and mice receive, via pipette, 2×20 ul installations (spaced 30 s apart to allow clearance from the airways) of 0.8 U/kg bleomycin (Biotang, Cat #RB003). Controls receive the same volume of saline only. Weight is tracked (approximately 10% weight loss occurs in injured animals) and animals are subjected to a dry powder inhalation protocol (CH technologies) daily for one week. […] Images were captured with Aperio AT2 high volume, digital whole slide scanner and lungs were scored for fibrotic injury according to modified Ashcroft scoring protocol (Hubner et al., 2008, incorporated herein by reference). […] The colormetric assay was read on a microplate reader (FilterMax F5, Molecular Devices, 580 nm). […]
Lung tissues were homogenized and collagen content was analyzed using the Quickzyme collagen assay (FIG. 30). […]

The term solubility (thermodynamic) denotes the concentration in solution at equilibrium with solid.

≈ marks a conversion by molar mass, not a printed value. Peptide text beside a SMILES is read from it.

As to `CC(C)[C@H](NC(=O)[C@@H](NC(=O)[C@H](Cc1ccccc1)NC(=O)[C@@H](NC(=O)[C@@H](NC(=O)[C@@H](N)Cc1ccccc1)[C@@H](C)O)[C@@H](C)O)[C@@H](C)O)C(=O)N[C@H](C(=O)O)[C@@H](C)O` [CSP7 (ammonium counterion), FTTFTVT] (H-FTTFTVT-OH; N-terminus and C-terminus assumed), in series [1], the EF % came to 92.8%. In series [1], the FPD amounted to 4.2 mg. Moreover, the FPF % in series [1] was 48.4%. For the same molecule, in series [1], the GSD came out at 4.67. This molecule also yielded an MMAD in series [1] of 3.09 μm. Besides, the thermodynamic solubility at 24 h in the series “physchem” (pH 3, aqueous buffer) was 170 µg/mL; in “physchem” (pH 4, aqueous buffer) it was 70 µg/mL; in the series “physchem” (pH 5, aqueous buffer) it was 50 µg/mL; in the series “physchem” (pH 6, aqueous buffer), 70 µg/mL; in the series “physchem” (pH 7, aqueous buffer), 100 µg/mL; in the series “physchem” (pH 8, aqueous buffer) it was 380 µg/mL. Also, the thermodynamic solubility at 24 h in “physchem” (pH 9, aqueous buffer) was found to be 2300 µg/mL; in “physchem” (pH 10, aqueous buffer), 7870 µg/mL; in “physchem” (pH 11, aqueous buffer), 14400 µg/mL. Besides, in series [2], the “% 1-5 μm” value was 47.0 ± 0.9%. For the same molecule, in series [2], the “Dv 10” value is reported as 1.2 ± 0 μm. Further, the “Dv 50” value in series [2] worked out at 4.5 ± 0.1 μm. In addition, the “Dv 90” value in series [2] was 15.7 ± 0.8 μm.
For `CC(C)[C@H](NC(=O)[C@@H](NC(=O)[C@H](Cc1ccccc1)NC(=O)[C@@H](NC(=O)[C@@H](NC(=O)[C@@H](N)Cc1ccccc1)[C@@H](C)O)[C@@H](C)O)[C@@H](C)O)C(=O)N[C@H](C(=O)O)[C@@H](C)O` [CSP7, FTTFTVT] (H-FTTFTVT-OH; N-terminus and C-terminus assumed), the “Dv 50” value in series [3] came out at 29.0±0.8 μm. For the same molecule, the solubility (thermodynamic) at 3 min in series [4] (pH 4.5) turned out to be 150 µg/mL (≈ 184 µM); in series [4] (pH 5.5), 160 µg/mL (≈ 196 µM); in series [4] (pH 6.5) it was 160 µg/mL (≈ 196 µM); in series [4] (pH 7.5) it was 310 µg/mL (≈ 380 µM); in series [4] (pH 8.5), 1430 µg/mL (≈ 1750 µM). In addition, the Ashcroft score result in series [5] is reported as “lower”.
